In patent publication US9315490B2, “2,5-substituted pyrimidines” (Grünenthal GmbH, priority 2014, dated 2016):

Each compound was assayed against T1, human PDE4B1 (Homo sapiens, UniProt Q07343) (assay: TR-FRET assay using the LANCE Ultra cAMP kit to determine the activity of hPDE4B1). Settings: test concentration 1 μM, read-out: Inhibition in % (inhibition of PDE4B).
T1 construct: host or cells: Sf9 cells
Format: biochemical
Source text: TR-FRET Assay Using the LANCE® Ultra cAMP Kit to Determine the Activity of hPDE4B1
The effects of the compounds on the activity of the human PDE4B1 was quantified by measuring the production of 5′AMP from cAMP using a human recombinant enzyme expressed in Sf9 cells and the LANCE® Ultra cAMP kit, a TR-FRET detection method from PerkinElmer. The human PDE4B1 enzyme was purchased from SignalChem Lifesciences (Catalog# P92-31BG, Lot# H296-2).
The test compound, reference compound or water (control) was mixed with the enzyme (0.96 U) in a reaction buffer containing 50 mM Tris-HCl, 50 mM MgCl2 and 5 mM DTT (pH 8.5). Thereafter, the reaction was initiated by addition of 500 nM cAMP (substrate) and the mixture was incubated for 30 minutes at room temperature. For control basal measurements, the enzyme was omitted from the reaction mixture. After 30 minutes, the reaction was stopped and diluted by a factor of 100 with the reaction buffer supplemented with 500 μM IBMX. The fluorescence donor (europium chelate-labeled cAMP) and the fluorescence acceptor (anti-cAMP antibody labeled with the ULight™ dye) were then added together with 500 μM IBMX to a 10 μl aliquot. After 60 minutes, the fluorescence transfer corresponding to the amount of residual cAMP was measured at λex=337 nm, λem=620 nm and λem=665 nm using a microplate reader (PHERAstar, BMG). The enzyme activity was determined by dividing the signal measured at 665 nm by that measured at 620 nm (ratio) multiplied by 10000. The results were expressed as percent inhibition of the control enzyme activity. IC50 values (IC50=concentration causing a half-maximal inhibition of control specific activity) were derived from dose response measurements with ten different concentrations (n=3; N=1-3).

T1 sequence (Q07343 whole entry): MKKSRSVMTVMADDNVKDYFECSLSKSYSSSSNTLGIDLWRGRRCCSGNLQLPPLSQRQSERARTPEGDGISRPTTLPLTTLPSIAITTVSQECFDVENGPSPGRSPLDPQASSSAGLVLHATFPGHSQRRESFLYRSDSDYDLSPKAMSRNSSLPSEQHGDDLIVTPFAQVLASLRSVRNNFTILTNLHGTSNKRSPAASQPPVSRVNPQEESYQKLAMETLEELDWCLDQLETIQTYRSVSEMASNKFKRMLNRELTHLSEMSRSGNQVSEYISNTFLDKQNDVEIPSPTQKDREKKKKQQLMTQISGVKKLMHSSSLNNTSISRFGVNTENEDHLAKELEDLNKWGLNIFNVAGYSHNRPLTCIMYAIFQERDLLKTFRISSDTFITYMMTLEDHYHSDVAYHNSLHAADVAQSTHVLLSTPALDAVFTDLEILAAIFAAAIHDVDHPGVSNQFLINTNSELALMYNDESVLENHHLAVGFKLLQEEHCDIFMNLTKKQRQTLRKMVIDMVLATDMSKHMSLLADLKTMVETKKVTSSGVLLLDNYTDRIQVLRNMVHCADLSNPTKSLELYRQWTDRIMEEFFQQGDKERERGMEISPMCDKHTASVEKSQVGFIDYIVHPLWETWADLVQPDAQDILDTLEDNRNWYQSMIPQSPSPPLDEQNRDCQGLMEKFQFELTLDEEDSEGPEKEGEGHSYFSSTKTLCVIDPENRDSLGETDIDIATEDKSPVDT

| SMILES | inhibition at 1 µM |
| --- | --- |
| C[S+]([O-])c1cn(-c2ncc(-c3cc(OC(F)(F)F)ccc3F)cn2)c2cc(C(=O)N3CCOCC3)ccc12 (stereo not shown) [Example 263, (1-(5-(2-Fluoro-5-(trifluoromethoxy)phenyl)pyrimidin-2-yl)-3-(methylsulfinyl)-1H-indol-6-yl)(morpholino)methanone] | 97% |
| CC(=O)Oc1ccc(F)c(-c2cnc(-n3cc([S+](C)[O-])c4ccc(C(=O)N5CCOCC5)cc43)nc2)c1 (stereo not shown) [Example 264, 4-Fluoro-3-(2-(3-(methylsulfinyl)-6-(morpholine-4-carbonyl)-1H-indol-1-yl)pyrimidin-5-yl)phenyl acetate] | 94% |
| Cc1ccc(F)c(-c2cnc(-n3cc([S+](C)[O-])c4ccc(C(=O)N5CCCC5)cc43)nc2)c1 (stereo not shown) [Example 265, (1-(5-(2-Fluoro-5-methylphenyl)pyrimidin-2-yl)-3-(methylsulfinyl)-1H-indol-6-yl)(pyrrolidin-1-yl)methanone] | 98% |
| CCN(C)C(=O)c1ccc2c([S+](C)[O-])cn(-c3ncc(-c4cc(C)ccc4F)cn3)c2c1 (stereo not shown) [Example 266, N-Ethyl-1-(5-(2-fluoro-5-methylphenyl)pyrimidin-2-yl)-N-methyl-3-(methylsulfinyl)-1H-indole-6-carboxamide] | 98% |
| Cc1ccc(F)c(-c2cnc(-n3cc([S+](C)[O-])c4ccc(C(=O)N(C)C)cc43)nc2)c1 (stereo not shown) [Example 267, 1-(5-(2-Fluoro-5-methylphenyl)pyrimidin-2-yl)-N,N-dimethyl-3-(methylsulfinyl)-1H-indole-6-carboxamide] | 94% |
| COc1ccc(F)c(-c2cnc(-n3cc([S+](C)[O-])c4ccc(C(=O)N(C)C)cc43)nc2)c1 (stereo not shown) [Example 268, 1-(5-(2-Fluoro-5-methoxyphenyl)pyrimidin-2-yl)-N,N-dimethyl-3-(methylsulfinyl)-1H-indole-6-carboxamide] | 95% |
| Cc1ccnc(-c2cnc(-n3cc([S+](C)[O-])c4ccc(C(=O)N5CCCC5)cc43)nc2)c1 (stereo not shown) [Example 269, (1-(5-(4-Methylpyridin-2-yl)pyrimidin-2-yl)-3-(methylsulfinyl)-1H-indol-6-yl)(pyrrolidin-1-yl)methanone] | 97% |
| Cc1ccnc(-c2cnc(-n3cc([S+](C)[O-])c4ccc(C(=O)N(C)C)cc43)nc2)c1 (stereo not shown) [Example 270, N,N-Dimethyl-1-(5-(4-methylpyridin-2-yl)pyrimidin-2-yl)-3-(methylsulfinyl)-1H-indole-6-carboxamide] | 102% |
| CCN(C)C(=O)c1ccc2c([S+](C)[O-])cn(-c3ncc(-c4cc(C)ccn4)cn3)c2c1 (stereo not shown) [Example 271, N-Ethyl-N-methyl-1-(5-(4-methylpyridin-2-yl)pyrimidin-2-yl)-3-(methylsulfinyl)-1H-indole-6-carboxamide] | 97% |
| CN(C)C(=O)c1ccc2c([S+](C)[O-])cn(-c3ncc(-c4cc(N(C)C)ccn4)cn3)c2c1 (stereo not shown) [Example 272, 1-(5-(4-(Dimethylamino)pyridin-2-yl)pyrimidin-2-yl)-N,N-dimethyl-3-(methylsulfinyl)-1H-indole-6-carboxamide] | 93% |
| CN(C)C(=O)c1ccc2c([S+](C)[O-])cn(-c3ncc(-c4cc(N)ccn4)cn3)c2c1 (stereo not shown) [Example 273, 1-(5-(4-Aminopyridin-2-yl)pyrimidin-2-yl)-N,N-dimethyl-3-(methylsulfinyl)-1H-indole-6-carboxamide] | 91% |
| CCc1ccc(F)c(-c2cnc(-n3cc([S+](C)[O-])c4ccc(C(=O)N(C)C)cc43)nc2)c1 (stereo not shown) [Example 274, 1-(5-(5-Ethyl-2-fluorophenyl)pyrimidin-2-yl)-N,N-dimethyl-3-(methylsulfinyl)-1H-indole-6-carboxamide] | 104% |
| CCc1ccc(F)c(-c2cnc(-n3cc([S+](C)[O-])c4ccc(C(=O)N5CCCC5)cc43)nc2)c1 (stereo not shown) [Example 275, (1-(5-(5-Ethyl-2-fluorophenyl)pyrimidin-2-yl)-3-(methylsulfinyl)-1H-indol-6-yl)(pyrrolidin-1-yl)methanone] | 113% |
| CCc1ccc(F)c(-c2cnc(-n3cc([S+](C)[O-])c4ccc(C(=O)N5CCOCC5)cc43)nc2)c1 (stereo not shown) [Example 276, (1-(5-(5-Ethyl-2-fluorophenyl)pyrimidin-2-yl)-3-(methylsulfinyl)-1H-indol-6-yl)(morpholino)methanone] | 106% |
| CCc1ccnc(-c2cnc(-n3cc([S+](C)[O-])c4ccc(C(=O)N5CCCC5)cc43)nc2)c1 (stereo not shown) [Example 277, (1-(5-(4-Ethylpyridin-2-yl)pyrimidin-2-yl)-3-(methylsulfinyl)-1H-indol-6-yl)(pyrrolidin-1-yl)methanone] | 93% |
| CCc1ccnc(-c2cnc(-n3cc([S+](C)[O-])c4ccc(C(=O)N(C)C)cc43)nc2)c1 (stereo not shown) [Example 278, 1-(5-(4-Ethylpyridin-2-yl)pyrimidin-2-yl)-N,N-dimethyl-3-(methylsulfinyl)-1H-indole-6-carboxamide] | 92% |
| COc1ccc(F)c(-c2cnc(-n3cc([S+](C)[O-])c4ccc(C(=O)N(C)CC(N)=O)cc43)nc2)c1 (stereo not shown) [Example 279, N-(2-Amino-2-oxoethyl)-1-(5-(2-fluoro-5-methoxyphenyl)pyrimidin-2-yl)-N-methyl-3-(methylsulfinyl)-1H-indole-6-carboxamide] | 97% |
| CCc1ccc(F)c(-c2cnc(-n3cc([S+](C)[O-])c4ccc(C(=O)N(C)CC(N)=O)cc43)nc2)c1 (stereo not shown) [Example 280, N-(2-Amino-2-oxoethyl)-1-(5-(5-ethyl-2-fluorophenyl)pyrimidin-2-yl)-N-methyl-3-(methylsulfinyl)-1H-indole-6-carboxamide] | 93% |
| Cc1ccc(F)c(-c2cnc(-n3cc([S+](C)[O-])c4ccc(C(=O)N(C)CC(N)=O)cc43)nc2)c1 (stereo not shown) [Example 281, N-(2-Amino-2-oxoethyl)-1-(5-(2-fluoro-5-methylphenyl)pyrimidin-2-yl)-N-methyl-3-(methylsulfinyl)-1H-indole-6-carboxamide] | 97% |
| Cc1ccnc(-c2cnc(-n3cc([S+](C)[O-])c4ccc(C(=O)N(C)CC(N)=O)cc43)nc2)c1 (stereo not shown) [Example 282, N-(2-Amino-2-oxoethyl)-N-methyl-1-(5-(4-methylpyridin-2-yl)pyrimidin-2-yl)-3-(methylsulfinyl)-1H-indole-6-carboxamide] | 90% |
| COc1ccnc(-c2cnc(-n3cc([S+](C)[O-])c4ccc(C(=O)N(C)CC(N)=O)cc43)nc2)c1 (stereo not shown) [Example 283, N-(2-Amino-2-oxoethyl)-1-(5-(4-methoxypyridin-2-yl)pyrimidin-2-yl)-N-methyl-3-(methylsulfinyl)-1H-indole-6-carboxamide] | 92% |
| CN(CC(N)=O)C(=O)c1ccc2c([S+](C)[O-])cn(-c3ncc(-c4cc(N(C)C)ccn4)cn3)c2c1 (stereo not shown) [Example 284, N-(2-Amino-2-oxoethyl)-1-(5-(4-(dimethylamino)pyridin-2-yl)pyrimidin-2-yl)-N-methyl-3-(methylsulfinyl)-1H-indole-6-carboxamide] | 104% |
| CCc1ccnc(-c2cnc(-n3cc([S+](C)[O-])c4ccc(C(=O)N(C)CC(N)=O)cc43)nc2)c1 (stereo not shown) [Example 285, N-(2-Amino-2-oxoethyl)-1-(5-(4-ethylpyridin-2-yl)pyrimidin-2-yl)-N-methyl-3-(methylsulfinyl)-1H-indole-6-carboxamide] | 91% |
| CS(=N)(=O)c1cn(-c2ncc(-c3ccccc3F)cn2)c2cc(C(=O)N3CCOCC3)ccc12 (stereo not shown) [Example 287, (1-(5-(2-Fluorophenyl)pyrimidin-2-yl)-3-(S-methylsulfonimidoyl)-1H-indol-6-yl)(morpholino)methanone] | 93% |
| Cc1ccnc(-c2cnc(-n3cc(S(C)(=N)=O)c4ccc(C(=O)N5CCOCC5)cc43)nc2)c1 (stereo not shown) [Example 288, (1-(5-(4-Methylpyridin-2-yl)pyrimidin-2-yl)-3-(S-methylsulfonimidoyl)-1H-indol-6-yl)(morpholino)methanone] | 92% |
| C[S+]([O-])c1cn(-c2ncc(-c3cc(C(C)(C)O)ccn3)cn2)c2cc(C(=O)N3CCOCC3)ccc12 (stereo not shown) [Example 289, (1-(5-(4-(2-Hydroxypropan-2-yl)pyridin-2-yl)pyrimidin-2-yl)-3-(methylsulfinyl)-1H-indol-6-yl)(morpholino)methanone] | 93% |

Same assay, conditions: test concentration 10 μM (marked in cell), read-out: Inhibition in % (inhibition of PDE4B)

| SMILES | inhibition at 10 µM |
| --- | --- |
| CN(CC(N)=O)C(=O)c1ccc2c([S+](C)[O-])cn(-c3ncc(-c4cc(N)ccn4)cn3)c2c1 (stereo not shown) [Example 286, N-(2-Amino-2-oxoethyl)-1-(5-(4-aminopyridin-2-yl)pyrimidin-2-yl)-N-methyl-3-(methylsulfinyl)-1H-indole-6-carboxamide] | 101% |
| C[S+]([O-])c1cn(-c2ncc(-c3cc(NCC4CC4)ccc3F)cn2)c2cc(C(=O)N3CCOCC3)ccc12 (stereo not shown) [Example 290, (1-(5-(5-((Cyclopropylmethyl)amino)-2-fluorophenyl)pyrimidin-2-yl)-3-(methylsulfinyl)-1H-indol-6-yl)(morpholino)methanone] | 97% |
